Assay results as given in US5527801A, “Ameliorant for blood lipid metabolism” (Dainippon Pharmaceutical Co., Ltd., priority 1991, dated 1996).
Like-named read-outs stand apart in the source and are kept apart here.

Legend:
[1] = tested on: total cholesterol in plasma; experiment: Total cholesterol in plasma of rabbits fed high fat feed; type: in vivo, male white Japanese rabbits; conditions: for Total cholesterol concentration, effect in words: vs High fat feed + Vehicle, up to 9 weeks; for Total cholesterol concentration in plasma: ± standard error
Description: (§1) In this experiment, male white Japanese rabbits (5 to 7 rabbits/group) were used. The high fat feed was prepared by adding 1% cholesterol and 6% coconut oil to the solid feed (Oriental Yeast Co., Ltd., RC-4).
(§2) Separately, in the normal feed group, each rabbit was given normal solid feed (RC-4) (100 g/day) and a vehicle (tragacanth solution) orally.

[2] = tested on: free cholesterol in plasma; experiment: Free cholesterol in plasma of rabbits fed high fat feed; type: in vivo, male white Japanese rabbits; conditions: for Free cholesterol concentration, effect in words: vs High fat feed + Vehicle, up to 9 weeks; for Free cholesterol concentration in plasma: ± standard error
Description: as §1, §2

phospholipid in plasma = experiment: Phospholipid in plasma of rabbits fed high fat feed; type: in vivo, male white Japanese rabbits; conditions: for Phospholipid concentration, effect in words: vs High fat feed + Vehicle, up to 9 weeks; for Phospholipid concentration in plasma: ± standard error
Description: as §1, §2

[3] = tested on: cholesterol amount in aortas; experiment: Cholesterol amount in the aorta of rabbits fed high fat feed (atherosclerosis); type: in vivo, male white Japanese rabbits; conditions: 9 weeks; for Cholesterol amount in the aorta, effect in words: vs High fat feed + Vehicle; for Cholesterol amount in aortas: high fat feed, oral once a day: maleate of Compound A 30, diltiazem 50, prazosin 3 mg/kg/day
Description: as §1, §2
(§3) Nine weeks after the beginning of administration, each rabbit was killed with bleeding under pentobarbital-anesthesia, and the aorta was taken out. The cholesterol amount in the aorta was determined, and the lipid deposition at the aortic inner wall was stained and the area of the stained parts was measured.

[4] = tested on: lipid deposition at aortic inner wall; experiment: Area of lipid deposition at aortic inner wall of rabbits fed high fat feed (atherosclerosis); type: in vivo, male white Japanese rabbits; conditions: 9 weeks; for Area of lipid deposition at the aortic inner wall, effect in words: vs High fat feed + Vehicle; for Area of lipid deposition at aortic inner wall: high fat feed, percentage of whole area of aortic inner wall, oral once a day: maleate of Compound A 30, diltiazem 50, prazosin 3 mg/kg/day
Description: as §1, §2, §3

[5] = Acute toxicity (LD50), oral, mice; conditions: mouse, in vivo
[6] = Hypotensive activity at the dosages of the experiment; type: in vivo; conditions: at 30 (maleate of Compound A), 50 (diltiazem), 3 (prazosin) mg/kg/day, oral
rats = conditions: rat, in vivo
beagles = conditions: dog, in vivo
[7] = JP Kokoku 58341/1991 (U.S. Pat. No. 4,749,703); cited from earlier work
α1-receptor = conditions: Jpn. J. Pharmacol., 52 (suppl. 1), 212 (1990); cited from earlier work
blood lipid = conditions: cited from earlier work
atherosclerosis = conditions: cited from earlier work
[8] = week 0, high fat feed, before treatment
[9] = week 6, high fat feed, oral once a day: maleate of Compound A 30, diltiazem 50, prazosin 3 mg/kg/day
[10] = week 8, high fat feed, oral once a day: maleate of Compound A 30, diltiazem 50, prazosin 3 mg/kg/day
[11] = week 9, high fat feed, oral once a day: maleate of Compound A 30, diltiazem 50, prazosin 3 mg/kg/day

O=C(CCCN1CCN(c2ccc(F)cc2)CC1)NC1c2ccccc2CSc2ccccc21 (stereo not shown) [maleate of Compound A]
Total cholesterol concentration, effect in words [1]: significantly decreased from 8 weeks after the beginning of administration
Free cholesterol concentration, effect in words [2]: significantly decreased from 6 weeks after the beginning of the administration
Phospholipid concentration, effect in words (phospholipid in plasma): significantly decreased from 6 weeks after the beginning of the administration
Cholesterol amount in the aorta, effect in words [3]: significantly decreased
Area of lipid deposition at the aortic inner wall, effect in words [4]: also decreased
LD50 [5]: > 500 mg/kg
hypotensive activity [6]: show hypotensive activity
toxicity by prolonged administration (rats): no significant toxicity was observed
toxicity by prolonged administration (beagles): no significant toxicity was observed

O=C(CCCN1CCN(c2ccc(F)cc2)CC1)NC1c2ccccc2CSc2ccccc21 (stereo not shown) [Compound A]
Total cholesterol concentration in plasma [1, 8]: 1161 ± 110 mg/dL
Total cholesterol concentration in plasma [1, 9]: 1595 ± 136 mg/dL
Total cholesterol concentration in plasma [1, 10]: 1074 ± 162 mg/dL
Total cholesterol concentration in plasma [1, 11]: 1070 mg/dL
Free cholesterol concentration in plasma [2, 8]: 346 ± 34 mg/dL
Free cholesterol concentration in plasma [2, 9]: 503 ± 43 mg/dL
Free cholesterol concentration in plasma [2, 10]: 330 ± 56 mg/dL
Free cholesterol concentration in plasma [2, 11]: 306 mg/dL
Phospholipid concentration in plasma (phospholipid in plasma; [8]): 452 ± 42 mg/dL
Phospholipid concentration in plasma (phospholipid in plasma; [9]): 678 ± 70 mg/dL
Phospholipid concentration in plasma (phospholipid in plasma; [10]): 529 ± 66 mg/dL
Phospholipid concentration in plasma (phospholipid in plasma; [11]): 489 mg/dL
Cholesterol amount in aortas [3]: 234.4 ± 39.4 mg/kg of protein
Area of lipid deposition at aortic inner wall [4]: 35.2%
calcium antagonistic activity [7]: potent calcium antagonistic activity
α1-receptor blocking activity (α1-receptor): have α1 -receptor blocking activity

COc1cc2nc(N3CCN(C(=O)c4ccco4)CC3)nc(N)c2cc1OC [prazosin]
Total cholesterol concentration, effect in words [1]: no decrease
Total cholesterol concentration in plasma [1, 8]: 1201 ± 45 mg/dL
Total cholesterol concentration in plasma [1, 9]: 3048 ± 236 mg/dL
Total cholesterol concentration in plasma [1, 10]: 2082 ± 194 mg/dL
Total cholesterol concentration in plasma [1, 11]: 1999 mg/dL
Free cholesterol concentration, effect in words [2]: no decrease
Free cholesterol concentration in plasma [2, 8]: 368 ± 22 mg/dL
Free cholesterol concentration in plasma [2, 9]: 916 ± 69 mg/dL
Free cholesterol concentration in plasma [2, 10]: 740 ± 96 mg/dL
Free cholesterol concentration in plasma [2, 11]: 584 mg/dL
Phospholipid concentration, effect in words (phospholipid in plasma): no decrease
Phospholipid concentration in plasma (phospholipid in plasma; [8]): 474 ± 22 mg/dL
Phospholipid concentration in plasma (phospholipid in plasma; [9]): 1240 ± 94 mg/dL
Phospholipid concentration in plasma (phospholipid in plasma; [10]): 937 ± 112 mg/dL
Phospholipid concentration in plasma (phospholipid in plasma; [11]): 803 mg/dL
Cholesterol amount in aortas [3]: 372.8 ± 63.9 mg/kg of protein
Cholesterol amount in the aorta, effect in words [3]: not decreased at all
Area of lipid deposition at aortic inner wall [4]: 56.7%
Area of lipid deposition at the aortic inner wall, effect in words [4]: not decreased at all
hypotensive activity [6]: show hypotensive activity
α1-receptor blocking activity (α1-receptor): having α1 -receptor blocking activity
blood lipid decreasing activity (blood lipid; Prog. Medicine 3, 1517-1525 (1983)): no blood lipid decreasing activity
blood lipid decreasing activity (blood lipid; human being, Am. J. Medicine, 76 (suppl. 2A), 79-84 (1984)): shows blood lipid decreasing activity

COc1ccc([C@@H]2Sc3ccccc3N(CCN(C)C)C(=O)[C@@H]2OC(C)=O)cc1 [diltiazem]
Total cholesterol concentration, effect in words [1]: no decrease
Total cholesterol concentration in plasma [1, 8]: 1127 ± 202 mg/dL
Total cholesterol concentration in plasma [1, 9]: 2297 ± 127 mg/dL
Total cholesterol concentration in plasma [1, 10]: 2106 ± 293 mg/dL
Total cholesterol concentration in plasma [1, 11]: 1626 mg/dL
Free cholesterol concentration, effect in words [2]: no decrease
Free cholesterol concentration in plasma [2, 8]: 318 ± 57 mg/dL
Free cholesterol concentration in plasma [2, 9]: 660 ± 42 mg/dL
Free cholesterol concentration in plasma [2, 10]: 673 ± 96 mg/dL
Free cholesterol concentration in plasma [2, 11]: 486 mg/dL
Phospholipid concentration, effect in words (phospholipid in plasma): no decrease
Phospholipid concentration in plasma (phospholipid in plasma; [8]): 454 ± 72 mg/dL
Phospholipid concentration in plasma (phospholipid in plasma; [9]): 931 ± 50 mg/dL
Phospholipid concentration in plasma (phospholipid in plasma; [10]): 825 ± 116 mg/dL
Phospholipid concentration in plasma (phospholipid in plasma; [11]): 718 mg/dL
Cholesterol amount in aortas [3]: 509.3 ± 240.1 mg/kg of protein
Cholesterol amount in the aorta, effect in words [3]: not decreased at all
Area of lipid deposition at aortic inner wall [4]: 45.2%
Area of lipid deposition at the aortic inner wall, effect in words [4]: not decreased at all
hypotensive activity [6]: show hypotensive activity
atherosclerosis inhibitory activity (atherosclerosis; Atherosclerosis, 51, 343-344 (1984)): no inhibitory activity
atherosclerosis inhibitory activity (atherosclerosis; rabbits, Lab. Invest. 49, 154-158 (1983)): shows the atherosclerosis inhibitory activity
